# Source: US20210330611A1, “THERAPY FOR NEUROLOGICAL DISEASES/DISORDERS” (priority 2020, published 2021)
# Where a name gives a salt, the structure may show the parent alone. Read-outs that look alike come from different tables or passages of the source.
# Tests used:
# primary rat microglia [1] = test system: primary rat microglia;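 on Fibrin % cell toxicity: share of dead cells sized under 150 µm2 at 10 µM in fibrin-stimulated microglia HTS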
# [2] = test system: fibrin- and LPS-induced microglia activation; test: cells; format: cell-based, rat
# [3] = test system: LPS-induced microglia activation; test: Image-based assay of LPS-induced microglia activation (HTS and dose response); format: cell-based, rat; settings: for inhibition at 10 µM: Rattus norvegicus, Microglia, read-out: LPS % inhibition
# [4] = test system: fibrin-induced microglia activation; test: Image-based assay of fibrin-induced microglia activation (HTS and dose response); format: cell-based, rat; settings: for inhibition at 10 µM: Rattus norvegicus, Microglia, read-out: Fibrin % inhibition
# primary rat microglia [5] = test system: primary rat microglia; remark: listed apart in the source;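 on Fibrin % cell toxicity: share of dead cells sized under 150 µm2 at 10 µM in fibrin-stimulated microglia HTS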
# [6] = classification by fibrin and LPS inhibition, HTS at 10 μM
# [7] = primary microglia HTS, LPS stimulation, compounds at 10 μM
# [8] = primary microglia HTS, fibrin stimulation, compounds at 10 μM
# [9] = quadrant by fibrin and LPS inhibition in HTS of 1907 compounds
# [10] = 48 h, primary microglia HTS, LPS stimulation, activation = cell size >800 μm2
# [11] = primary microglia HTS, fibrin stimulation, activation = cell size >800 μm2
Structure (SMILES),Fibrin % cell toxicity (primary rat microglia [1]; rat),"Quadrant (FIG. 5b) [2, 6]","inhibition at 10 µM [3, 7]","inhibition at 10 µM [4, 8]",LPS % cell toxicity (primary rat microglia [5]; rat),Quadrant (FIG. 5b) [2],inhibition at 10 µM [4],also measured
O=c1oc2c(O)c(O)cc3c(=O)oc4c(O)c(O)cc1c4c23 [Ellagic Acid],1%,Q4,24%,-5%,0%,–,–,–
Nc1nc(=O)n([C@@H]2CS[C@H](CO)O2)cc1F [Emtricitabine],1%,–,–,–,1%,Q4,-73%,inhibition at 10 µM [3]: 11%
CCOC(=O)[C@H](CCc1ccccc1)N[C@@H](C)C(=O)N1CCC[C@H]1C(=O)O [Enalapril],1%,Q4,6%,24%,1%,–,–,–
NC1=NCC2c3ccccc3Cc3ccccc3N12 (centres unmarked) [Epinastine],1%,–,–,–,0%,Q4,-38%,inhibition at 10 µM [3]: -15%
"COc1cccc2c1C(=O)c1c(O)c3c(c(O)c1C2=O)C[C@@](O)(C(=O)CO)C[C@@H]3O[C@H]1C[C@H](N)[C@@H](O)[C@H](C)O1 [Epirubicin, Epirubicin Hydrochloride]",–,–,–,–,–,–,–,"Fibrin % cell toxicity (primary rat microglia [1]): 79%; Quadrant (FIG. 5b) [2, 9]: Q2; LPS % inhibition ([3]; primary microglia HTS, LPS stimulation, increased cell size (>800 μm^2) as marker of activation): 123%; Fibrin % inhibition ([4]; primary microglia HTS, fibrin stimulation, increased cell size (>800 μm^2) as marker of activation): 113%; LPS % cell toxicity (primary rat microglia [5]): 58%"
C=C1CC[C@H](O)C/C1=C/C=C1\CCC[C@]2(C)[C@@H]([C@H](C)/C=C/[C@H](C)C(C)C)CC[C@@H]12 [Ergocalciferol],1%,Q4,7%,-6%,0%,–,–,–
C#Cc1cccc(Nc2ncnc3cc(OCCOC)c(OCCOC)cc23)c1 [Erlotinib],1%,Q4,-8%,-52%,0%,–,–,–
CC[C@@H](CO)NCCN[C@@H](CC)CO [Ethambutol],1%,Q4,14%,12%,1%,–,–,–
CCc1cccc2c3c([nH]c12)C(CC)(CC(=O)O)OCC3 (centres unmarked) [Etodolac],0%,Q4,14%,-87%,1%,–,–,–
CC12CCC(CC1)C(C)(C)O2 [Eucalyptol],0%,Q4,9%,-15%,0%,–,–,–
CC(Cc1ccc(O)cc1)NCC(O)c1cc(O)cc(O)c1 (centres unmarked) [Fenoterol],0%,–,–,–,0%,–,–,"Quadrant (FIG. 5b) [2, 9]: Q4; inhibition at 10 µM [3, 10]: 26%; inhibition at 10 µM [4, 11]: 40%"
OC(Cn1cncn1)(Cn1cncn1)c1ccc(F)cc1F [Fluconazole],0%,–,–,–,0%,Q4,3%,inhibition at 10 µM ([3]; 48 h): 19%
CCOC(=O)c1ncn2c1CN(C)C(=O)c1cc(F)ccc1-2 [Flumazenil],1%,–,–,–,1%,–,–,"Quadrant (FIG. 5b) [2, 9]: Q4; inhibition at 10 µM [3, 10]: 14%; inhibition at 10 µM [4, 11]: 5%"
"C[C@@H]1C[C@H]2[C@@H]3C[C@H](F)C4=CC(=O)C=C[C@]4(C)[C@@]3(F)[C@@H](O)C[C@]2(C)[C@@]1(O)C(=O)COC(=O)C(C)(C)C [Flumethazone pivalate, reference compound]",–,–,–,–,–,Q2,–,Fibrin % cell toxicity (primary rat microglia [1]): 1%; IC50 (primary rat microglia [1]): > 20000 nM; Activity [2]: fib/LPS; Cherry-picked Hit (Suppl. Table 7) [2]: HIT (key: HIT: Hits were defined as molecules that exhibited greater than 50% inhibition of either fibrin or LPS activation); Hit [2]: HIT (key: HIT: Hits were defined as molecules that exhibited greater than 50% inhibition of either fibrin or LPS activation); LPS % inhibition [3]: 94%; LPS specificity [3]: 1.0; LPS_HS [3]: 0.00; IC50 ([3]; read-out: LPS IC50): 0.004 µM; IC50 ([3]; read-out: LPS IC50 (uM) (Suppl. Table 7)): 0.004 µM; Fibrin % inhibition [4]: 101%; Fibrin Selectivity [4]: 4; Fibrin Selectivity (LOG10) [4]: 0.58; fib specificity [4]: 1.0; fib_HS [4]: −0.23; IC50 ([4]; read-out: Fibrin IC50): < 0.001 µM; IC50 ([4]; read-out: Fibrin IC50 (uM) (Suppl. Table 7)): < 0.001 µM; IC50 (primary rat microglia [5]): > 20000 nM; LPS % cell toxicity (primary rat microglia [5]): 3%
Fc1ccc(C(c2ccc(F)cc2)N2CCN(C/C=C/c3ccccc3)CC2)cc1 [Flunarizine],1%,–,–,–,1%,Q4,-10%,inhibition at 10 µM ([3]; 48 h): 12%
OCCN1CCN(CCCN2c3ccccc3Sc3ccc(C(F)(F)F)cc32)CC1 [Fluphenazine],1%,–,–,–,0%,Q4,7%,inhibition at 10 µM ([3]; 48 h): 20%
CC(C)C(=O)Nc1ccc([N+](=O)[O-])c(C(F)(F)F)c1 [Flutamide],1%,–,–,–,0%,–,–,"Quadrant (FIG. 5b) [2, 9]: Q4; inhibition at 10 µM [3, 10]: 23%; inhibition at 10 µM [4, 11]: 15%"
COc1ccc(CC(C)NCC(O)c2ccc(O)c(NC=O)c2)cc1 (centres unmarked) [Formoterol],1%,–,–,–,1%,Q4,-6%,inhibition at 10 µM ([3]; 48 h): 32%
O=C(O)/C=C/C(=O)O [Fumaric Acid],1%,–,–,–,0%,Q4,19%,inhibition at 10 µM ([3]; 48 h): 17%
